Measured values reported in US5496808A (priority 1991, dated 1996).
Converted amounts (≈) assume the structure as drawn. Where two headings read alike, the source gives them in different places.

Tests used:
[1] = system: LoVo/DX (colon adenocarcinoma resistant to Doxorubicin); experiment: cells; details: for IC50: Homo sapiens, 4 h, read-out: Cytotoxicity IC50 LoVo/DX
Excerpt: (§1) Colony assay: 4 hr treatment
(§2) ^(1) IC50 = concentration inhibiting 50% of colony formation
^(2) R.I. = Resistance Index = (IC50 LoVo/DX)(IC50 LoVo)

[2] = system: LoVo (colon adenocarcinama); experiment: cells; type: cell-based, human; details: for IC50: Homo sapiens, read-out: Cytotoxicity IC50 LoVo
Excerpt: as §1, §2

[3] = system: Disseminated P388/DX Johnson Leukemia; experiment: Antitumor activity "in vivo" against disseminated P388/DX Johnson leukemia, resistant to Doxorubicin; set-up: species or system murine
Method: ^(7) 10^5 cell/mouse were injected i.v. on day 0.
(§3) ^(4) Compounds were suspended in Tween 80 10% and injected i.p. one
(§4) day after tumor transplantation.
(§5) ^(5) Median survival time of treated mice/Median survival time of
(§6) ^(6) No. of toxic deaths/total No. of mice.

[4] = system: Ascitic P388 Leukemia; experiment: Antitumor activity "in vivo" against ascitic P388 leukemia, sensitive to Doxorubicin; set-up: species or system murine
Method: ^(3) 10^6 cell/mouse were injected i.p. on day 0.
as §3, §4, §5, §6

[5] = 1.9 mg/kg i.p. one day after tumor transplantation
[6] = 2.5 mg/kg i.p. one day after tumor transplantation
[7] = 0.33 mg/kg i.p. one day after tumor transplantation
[8] = 0.5 mg/kg i.p. one day after tumor transplantation
[9] = 0.75 mg/kg i.p. one day after tumor transplantation
[10] = 22.0 mg/kg i.p. one day after tumor transplantation
[11] = 10.0 mg/kg i.p. one day after tumor transplantation
[12] = 15.0 mg/kg i.p. one day after tumor transplantation
[13] = 1.2 mg/kg i.p. one day after tumor transplantation
[14] = 1.6 mg/kg i.p. one day after tumor transplantation
[15] = 2.1 mg/kg i.p. one day after tumor transplantation
[16] = 2.8 mg/kg i.p. one day after tumor transplantation
[17] = 3.7 mg/kg i.p. one day after tumor transplantation
[18] = 1.0 mg/kg i.p. one day after tumor transplantation
[19] = 1.4 mg/kg i.p. one day after tumor transplantation
[20] = 2.0 mg/kg i.p. one day after tumor transplantation

CC(=O)[C@]1(O)Cc2c(O)c3c(c(O)c2[C@@H](O[C@H]2C[C@H](N)[C@H](O)[C@H](C)O2)C1)C(=O)c1ccccc1C3=O [4-demethoxydaunorubicin]
IC50 ([1]; LoVo/DX): 0.048 µg/mL (≈ 0.0965 µM)
R.I. = Resistance Index (IC50 LoVo/DX)(IC50 LoVo) ([1]; human, lovo/dx vs lovo, 240 min): 12.0
IC50 ([2]; 4 h): 0.004 µg/mL (≈ 0.00804 µM)
T/C (median survival time of treated mice/controls × 100) [3, 5]: 106%
TOX [3, 5]: 0/10
T/C (median survival time of treated mice/controls × 100) [3, 6]: 89%
TOX [3, 6]: 0/10
T/C (median survival time of treated mice/controls × 100) [4, 7]: 142%
TOX [4, 7]: 0/27
T/C (median survival time of treated mice/controls × 100) [4, 8]: 160%
TOX [4, 8]: 0/28
T/C (median survival time of treated mice/controls × 100) [4, 9]: 163%
TOX [4, 9]: 4/28

COc1cccc2c1C(=O)c1c(O)c3c(c(O)c1C2=O)C[C@@](O)(C(=O)CO)C[C@@H]3O[C@H]1C[C@H](N)[C@H](O)[C@H](C)O1 [Doxorubicin, doxorubicin]
IC50 ([1]; LoVo/DX): 4.98 µg/mL (≈ 9.15 µM)
IC50 ([2]; colony assay: 4 hr treatment): 0.0825 µg/mL (≈ 0.152 µM)
TOX ([3]; 16.9 mg/kg i.p. one day after tumor transplantation): 0/6
T/C (median survival time of treated mice/controls × 100) [3, 10]: 94%
TOX [3, 10]: 3/6
T/C (median survival time of treated mice/controls × 100) [4, 11]: 299%
TOX [4, 11]: 0/10
T/C (median survival time of treated mice/controls × 100) [4, 12]: 90%
TOX [4, 12]: 3/6

CC(=O)[C@]1(O)Cc2c(O)c3c(c(O)c2[C@@H](O[C@H]2C[C@H](N(CCCl)CCCl)[C@H](OS(C)(=O)=O)[C@H](C)O2)C1)C(=O)c1ccccc1C3=O [compound 1h, 4-demethoxy-4'-O-methansulfonyl-N,N-bis(2-chloroethyl)daunorubicin]
R.I. = Resistance Index (IC50 LoVo/DX)(IC50 LoVo) ([1]; LoVo/DX versus LoVo, colony assay: 4 hr treatment): 3.3
Cytotoxicity IC50 LoVo/DX ([1]; LoVo/DX, colony assay: 4 hr treatment): 0.014 µg/mL
activity on the doxorubicin-resistant cell line compared with 4-demethoxydaunorubicin and Doxorubicin ([1]; LoVo/DX, in comparison with 4-demethoxydaunorubicin (3b) and Doxorubicin (3c)): striking higher activity
Cytotoxicity IC50 LoVo ([2]; colony assay: 4 hr treatment): 0.0043 µg/mL
T/C (median survival time of treated mice/controls × 100) [3, 13]: 133%
TOX [3, 13]: 0/6
T/C (median survival time of treated mice/controls × 100) [3, 14]: 144%
TOX [3, 14]: 0/6
T/C (median survival time of treated mice/controls × 100) [3, 15]: 185%
TOX [3, 15]: 0/6
T/C (median survival time of treated mice/controls × 100) [3, 16]: 220%
TOX [3, 16]: 0/6
T/C (median survival time of treated mice/controls × 100) [3, 17]: 250%
TOX [3, 17]: 0/6
activity when tested on resistant Leukemia ([3]; P388 resistant to Doxorubicin (Johnson)): high activity
T/C (median survival time of treated mice/controls × 100) [4, 18]: 184%
TOX [4, 18]: 0/12
T/C (median survival time of treated mice/controls × 100) [4, 19]: 217%
TOX [4, 19]: 0/6
T/C (median survival time of treated mice/controls × 100) [4, 20]: 233%
TOX [4, 20]: 1/6
T/C (median survival time of treated mice/controls × 100) [4, 16]: 78%
TOX [4, 16]: 6/6
